One test deals with T1, PLA2G16 (Homo sapiens, UniProt P53816).
T1 construct: Hexa-His (N); made in house; host or cells: E. coli BL21(DE3)
T1 sequence (P53816 1-162): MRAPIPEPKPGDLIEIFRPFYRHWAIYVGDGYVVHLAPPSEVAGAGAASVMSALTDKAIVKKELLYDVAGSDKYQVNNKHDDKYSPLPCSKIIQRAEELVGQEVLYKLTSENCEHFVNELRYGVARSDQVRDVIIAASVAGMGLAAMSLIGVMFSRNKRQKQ
In words: Enzyme activity assay for PLA2G16 (Red/Green BODIPY PC-A2 fluorescence). The class given is biochemical. The conditions noted are these: His-tagged PLA2G16, 4 min pre-incubation, 2 nM to 50 μM; read-out: IC50 values of the compounds determined in the enzyme activity assay for PLA2G16. From the text:
A cDNA for PLA2G16(NM_007069) was custom-synthesized by Genscript (Piscataway, USA) and inserted into a pET-based bacterial expression vector [Moffatt, B. A. and Studier, F. W. (1986) J. Mol. Biol. 189, 113-130; Rosenberg, A. H., Lade, B. N., Chui, D., Lin, S., Dunn, J. J., and Studier, F. W. (1987) Gene 56, 125-135], enabling the expression of N-terminally Hexa-His-tagged PLA2G16. E. coli BL21(DE3) (Agilent) were transformed with pET-His-PLA2G16according to the manufacturer's instructions and plated on Carbenicillin-containing agar plates (final concentration: 100 μg/mL). A single clone was in occulated in 100 mL LB medium supplemented with 100 μg/mL Carbenicillin and the in occulated culture was grown at 37° C. overnight in a rotary shaker. On the next day, the bacterial culture was diluted in LB medium supplemented with 100 μg/mL Carbenicillin (30 mL overnight culture in 800 mL total culture volume). Bacteria were grown at 37° C. until the OD600 reached 0.6. Gene expression was induced by addition of 1 mM isopropyl-β-D-thiogalactopyranosid (IPTG) for 2 h at 18° C. Subsequently, bacteria were harvested by centrifugation (15 min; 10,000×g; 4° C.) and frozen at −80° C. The bacterial pellet was resuspended in Buffer A (50 mM Tris/HCl pH 7.5, 500 mM NaCl, 5% glycerol, 5 mM β-Mercaptoethanol and 1 mM PMSF) and lysed by addition of 1 mg/mL lysozyme (Sigma Aldrich) and 100 μg/mL DNasel-(Roche). The sample was incubated at 30° C. for 30 min to allow lysis to occur. Then, the lysate was cleared by centrifugation (15,000×g, 15 min, 4° C.) and incubated with 1.5 mL Ni-NTA agarose suspension (Qiagen) for 60 min at 4° C. The Ni-NTA agarose was washed with 10 mL Buffer A. Bound protein was eluted by applying a manual gradient of Buffer A supplemented with increasing concentrations of imidazole (Sigma Aldrich; 25/50/75/100/250 mM). Purified fractions were analyzed by SDS-PAGE followed by Coomassie staining to assess the purity.
Activity of the protein was assessed as follows: Red/Green BODIPY® PC-A2 (Invitrogen, 1 mM in DMSO) was mixed with equal volumes of 1,2-Dioleoyl-sn-glycero-3-phosphocholine (DOPC; Sigma Aldrich, 10 mM in Ethanol) and 1,2-Dioleoyl-sn-glycero-3-phospho-rac-(1-glycerol) (DOPG; Sigma Aldrich, 10 mM in Ethanol) and 0.5 volumes of Cholesterol (CHOL; Sigma Aldrich, 10 mM in Ethanol) and vortexed for 5 s. The mixture (Red/Green BODIPY® PC-A2/DOPC/DOPG/CHOL) was diluted 1:91.4 in activity assay buffer (50 mM Tris/HCl pH 8.5, 100 mM NaCl) using a small-orifice pipette tip under constant vortexing. In the following, this preparation will be referred to as the “substrate solution”.
In order to evaluate their inhibitory potential, compounds were dissolved at 10 mM concentration in DMSO and directly spotted into assay plates (Corning, Cat. No. 3576) using acoustic liquid transfer (Labcyte Echo 525). Each compound was spotted at increasing concentrations, ranging from 2 nM to 50 μM (concentration in the final assay volume). 50 μl of PLA2G16 enzyme solution (diluted in activity buffer, supplemented with 5 mM L-Glutathione; Sigma Aldrich) was pre-incubated with compounds for 4 min., followed by addition of 50 μl of substrate solution. Fluorescence was recorded immediately after substrate addition for a total time of 10 min. using a SpectraMax M5 multimode reader (Excitation wavelength: 480 nm, emission wavelength: 530 nm). The relative increase of fluorescence over time is referred to as the enzyme activity. Half-maximal inhibitory concentrations (IC50) were derived by non-linear regression analysis using the drc package in R (R Development. Core Team, 2005).

The subject of test [1] is picornaviruses (CVB1, HRV-A2, HRV-A23, EV-68). In words: Anti-picornavirus cytopathic effect (CPE) reduction assay on HeLa H1 cells. It is filed as cell-based. To be noted: Enterovirus B, HeLa H1, 48 h, HeLa H1 cells, 48 h, category from averaging the EC50 values from four picornaviruses (CVB1, HRV-A2, HRV-A23, EV68); read-out: EC50 values of the compounds determined in the anti-picornavirus assay. As to the method:
The antiviral activity of selected compounds was tested using a cytopathic effect (CPE) reduction assay on HeLa H1 cells (ATCC CRL-1958). Briefly, cells were seeded in 96-well dishes (2×10^4 cells/well) in DMEM medium (Life technologies) supplemented with 10% FBS and PenStrep solution (100 U/mL Penicillin and 100 μg/mL streptomycin) and incubated at 37° C., 5% CO2 ovemight. The next day, cells were pre-treated with serial dilutions of the compound in DMEM medium supplemented with 2% FBS and PenStrep for 2 h at 37° C., 5% CO2. Next, cells were infected with virus (CVB1, HRV-A2, HRV-A23, EV-68) at an multiplicity of infection (MOI) which results in a complete virus-induced CPE within 2 days in control wells (infected and vehicle-treated). After 48 h, supematants were aspirated and 50 μl/well of CellTiterBlue reagent (Promega) diluted 1:5 in DMEM+2% FBS, was added to the cells. Plates were returned to the incubator and allowed to develop for 1.5 h. After that, plates were equilibrated to RT and subsequently, fluorescence was recorded (Excitation wavelength: 560 nm; emission wavelength: 590 nm) using a SpectraMax M5 multimode plate reader. Viability of cells was calculated according to the formula: V=(RFUCpd−RFUVeh/(RFUM−RFUVeh), where RFUCpd refers to infected and compound-treated cells, RFUVeh to infected and vehicle-treated cells and RFUM to uninfected and vehicle treated cells. Half-maximal effective concentrations (EC50) were calculated by non-linear regression analysis using the drc package in R (R Development. Core Team, 2005). EC50 categories as presented in Table 2 were calculated by averaging the EC50 values from four picornaviruses (CVB1, HRV-A2, HRV-A23, EV68).

Each structure is given as a SMILES string.

Among the data in US11091428B2 (HAPLOGEN GMBH, priority 2016, dated 2021) are IC50 and EC50 values, retold here.

Consider `CC(=O)N1CCC(CN(C=O)C(C)C(=O)C(=O)NCC2CCCCC2)CC1` (stereo not drawn) [FP 79, 3-{N-[(1-Acetylpiperidin-4-yl)methyl]formamido}-N-(cyclohexylmethyl)-2-oxobutanamide], for which the IC50 at PLA2G16 lay within 1 to 10 µM. For the same molecule, the EC50 in test [1] is more than 10 µM.

As for `CCC(NC(=O)c1ccccc1)C(=O)C(=O)NC1CC1` (stereo not drawn) [FP 183, N-Cyclopropyl-2-oxo-3-(phenylformamido)pentanamide], the IC50 at PLA2G16 is 1 to 10 µM. For the same molecule, in test [1], the half-maximal effective concentration (EC50) is more than 10 µM.

Consider `CC(C(=O)C(=O)NCC1CCCCC1)N(C=O)c1cc[nH]c(=O)c1` (stereo not drawn) [FP 192, N-(Cyclohexylmethyl)-2-oxo-3-[N-(2-oxo-1,2-dihydropyridin-4-yl)formamido]butanamide], for which the IC50 at PLA2G16 is less than 1 µM. In addition, the EC50 in test [1] is more than 10 µM.

Consider `CC(C(=O)C(=O)NCC1CC1)N(C=O)CC1CCN(C(=O)C2CCCCC2)CC1` (stereo not drawn) [FP 81, 3-{N-[(1-Cyclohexanecarbonylpiperidin-4-yl)methyl]formamido}-N-(cyclopropylmethyl)-2-oxobutanamide], for which the IC50 on PLA2G16 was 1 to 10 µM. Besides, the concentration for a half-maximal effect (EC50) in test [1] was more than 10 µM.

On to `COc1ccccc1N(C=O)C(C(=O)C(=O)NCc1cccc(Cl)c1)C(C)C` (stereo not drawn) [FP 35, N-[(3-Chlorophenyl)methyl]-3-[N-(2-methoxyphenyl)formamido]-4-methyl-2-oxopentanamide], for which, on PLA2G16, the half-inhibitory concentration (IC50) was less than 1 µM. Further, in test [1], the concentration for a half-maximal effect (EC50) lay within 1 to 10 µM.

For `O=C(NCC1CC1)C(=O)C1CCC(=O)N1Cc1ccccc1` (stereo not drawn) [FP 138, 2-(1-Benzyl-5-oxopyrrolidin-2-yl)-N-(cyclopropylmethyl)-2-oxoacetamide], the concentration for half-maximal inhibition (IC50) on PLA2G16 is less than 1 µM. Moreover, the EC50 in test [1] was less than 1 µM.

Regarding `CC(C(=O)C(=O)NCC1CC1)N(C)C(=O)c1ccccc1` (stereo not drawn) [FP 149, N-(Cyclopropylmethyl)-3-(N-methyl-1-phenylformamido)-2-oxobutanamide], the IC50 at PLA2G16 was less than 1 µM. Further, the EC50 in test [1] lay in the range of 1 to 10 µM.

`Cc1ccc(S(=O)(=O)NC(C)C(=O)C(=O)NCC2CC2)cc1` (stereo not drawn) [FP 189, N-(Cyclopropylmethyl)-3-(4-methylbenzenesulfonamido)-2-oxobutanamide]: at PLA2G16, the half-inhibitory concentration (IC50) was less than 1 µM. In addition, the concentration for a half-maximal effect (EC50) in test [1] lay in the range of 1 to 10 µM.

Take `CC(NS(=O)(=O)Cc1ccccc1)C(=O)C(=O)NCC1CC1` (stereo not drawn) [FP 188, N-(Cyclopropylmethyl)-2-oxo-3-(phenylmethanesulfonamido)butanamide]: the IC50 on PLA2G16 is less than 1 µM. In addition, the 50% effective concentration (EC50) in test [1] was more than 10 µM.

Consider `N#CC1CC(NC(=O)C(=O)[C@H]2CCC(=O)N2Cc2ccccc2)C1` (stereo partly drawn) [FP 303, 2-[(2R)-1-Benzyl-5-oxopyrrolidin-2-yl]-N-(3-cyanocyclobutyl)-2-oxoacetamide], for which the IC50 at PLA2G16 was less than 1 µM. Further, the concentration for a half-maximal effect (EC50) in test [1] is 1 to 10 µM.

Regarding `CC(C)C(=O)NCCCCNC(=O)C(=O)[C@H]1CCC(=O)N1Cc1ccccc1` [FP 304, N-(4-{2-[(2R)-1-Benzyl-5-oxopyrrolidin-2-yl]-2-oxoacetamido}butyl)-2-methylpropan-amide], the concentration for half-maximal inhibition (IC50) on PLA2G16 is less than 1 µM. Further, in test [1], the 50% effective concentration (EC50) lay within 1 to 10 µM.

For `COc1ccccc1N(C=O)C(C)C(=O)C(=O)NCC(C)(C)C` (stereo not drawn) [FP 101, N-(2,2-Dimethylpropyl)-3-[N-(2-methoxyphenyl)formamido]-2-oxobutanamide], the half-maximal inhibitory concentration (IC50) at PLA2G16 was less than 1 µM. Besides, in test [1], the EC50 lay in the range of 1 to 10 µM.

Take `CC(C(=O)C(=O)NCCOc1ccccc1)N(C=O)C1CCCCC1` (stereo not drawn) [FP 109, 3-(N-Cyclohexylformamido)-2-oxo-N-(2-phenoxyethyl)butanamide]: the IC50 on PLA2G16 is less than 1 µM. The EC50 in test [1] is less than 1 µM.

In the case of `CC(C)C(=O)N(C)C(C)C(=O)C(=O)NCC1CCCCC1` (stereo not drawn) [FP 144, N-(Cyclohexylmethyl)-3-(N,2-dimethylpropanamido)-2-oxobutanamide], on PLA2G16, the IC50 was less than 1 µM. Moreover, the concentration for a half-maximal effect (EC50) in test [1] was 1 to 10 µM.

Turning to `CC(NC(=O)c1ccccc1F)C(=O)C(=O)NCC1CC1` (stereo not drawn) [FP 164, N-(Cyclopropylmethyl)-3-[(2-fluorophenyl)formamido]-2-oxobutanamide], the IC50 on PLA2G16 is less than 1 µM. Also, the EC50 in test [1] was 1 to 10 µM.

`CC(C)(O)CNC(=O)C(=O)C1CCC(=O)N1Cc1ccc(Cl)cc1` (stereo not drawn) [FP 274, 2-{1-[(4-Chlorophenyl)methyl]-5-oxopyrrolidin-2-yl}-N-(2-hydroxy-2-methylpropyl)-2-oxoacetamide]: the IC50 on PLA2G16 is less than 1 µM. Moreover, the EC50 in test [1] fell in the range of 1 to 10 µM.

As for `O=C(NCC1(CO)CC1)C(=O)C1CCC(=O)N1Cc1ccc(Cl)cc1` (stereo not drawn) [FP 276, 2-{1-[(4-Chlorophenyl)methyl]-5-oxopyrrolidin-2-yl}-N-{[1-(hydroxymethyl)cyclopropyl]-methyl}-2-oxoacetamide], on PLA2G16, the concentration for half-maximal inhibition (IC50) was less than 1 µM. Besides, the EC50 in test [1] was 1 to 10 µM.

Consider `CC(C)CNC(=O)C(=O)C(C)N(C=O)CC(C)(C)C` (stereo not drawn) [FP 45, 3-[N-(2,2-Dimethylpropyl)formamido]-N-(2-methylpropyl)-2-oxobutanamide], for which the IC50 at PLA2G16 was less than 1 µM. In addition, the EC50 in test [1] is less than 1 µM.

As to `O=C(N[C@@H]1CCCC[C@@H]1O)C(=O)[C@H]1CCC(=O)N1Cc1ccccc1` (single isomer, unassigned) [FP 272], the IC50 at PLA2G16 is 1 to 10 µM. Besides, the EC50 in test [1] was more than 10 µM.

Regarding `CC(C(=O)C(=O)NCC(F)(F)F)N(C=O)C1CCCCC1` (stereo not drawn) [FP 110, 3-(N-Cyclohexylformamido)-2-oxo-N-(2,2,2-trifluoroethyl)butanamide], the IC50 at PLA2G16 is less than 1 µM. Besides, the EC50 in test [1] was in the range of 1 to 10 µM.

For `CC(C)[C@H](C(=O)C(=O)NCC1CC1)N(C=O)CC(C)(C)C` (single isomer, unassigned) [FP 32], the half-maximal inhibitory concentration (IC50) at PLA2G16 is less than 1 µM. Also, the EC50 in test [1] was more than 10 µM.
